*1 amine or outer side, *2 acyl side, *3 side chain or, on linkers, in order; H or OH if unused. Where a SMILES comes first, the peptide text is derived from it. Bridges are numbered along the chain shown (N, C = ends). Roman numbers before positions name the chains, in order. Side-chain parts run from the residue outwards. [ ]: non-standard residue; d: D form. The star is where a group is joined. ξ: configuration not given here. X25 = C[N+](C)(C)C[C@@H](CC(=O)O)NC(=O)CCC(=O)CCCCC[C@H](N[*:1])C(=O)[*:2]; X19 = CC(C)(S[*:2])[C@H](N[*:3])C(=O)C[C@@H](Cc1ccc(OCCN)cc1)C(=O)[*:1]; Trp(7-Me) = Cc1cccc2c(C[C@H](N)C(=O)O)c[nH]c12; C18 diacid = O=C(O)CCCCCCCCCCCCCCCCC(=O)*; γGlu = O=C(O)[C@H](CCC(=O)[*:2])N[*:1]; 2Nal = N[C@@H](Cc1ccc2ccccc2c1)C(=O)O; AEF = NCCOc1ccc(C[C@H](N)C(=O)O)cc1; X2 = C[N+](C)(C)C[C@@H](CC(=O)O)N*; 3Pal = N[C@@H](Cc1cccnc1)C(=O)O; Pen = CC(C)(S)[C@H](N)C(=O)O; Suc = O=C(CCC(=O)[*:2])[*:1]; Thp = NC1(C(=O)O)CCOCC1; X1 = C[N+](C)(C)CCCCC*; AEEA = NCCOCCOCC(=O)O; ξK = NCCCCC(N)C(=O)O; Sar = CNCC(=O)O
Assays:
[1] = test system: IL-23-stimulated phosphorylated STAT3 in peripheral blood mononuclear cells (PBMCs); assay: PBMC pSTAT3 Assay; format: cell-based; settings: PBMCs from healthy donors; 30 min preincubation with peptide; IL-23 5 ng/mL for 30 min; phospho-STAT3 by MSD
How it was run: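 Healthy-donor PBMCs expanded 4 days on anti-CD3 with 100 ng/mL IL-1β, starved ~4 h in RPMI-0.1% BSA, preincubated 30 min with peptide, then stimulated 30 min at 37 °C with 5 ng/mL IL-23. Lysate pSTAT3 measured by MSD phospho-STAT panel; IC50 derived.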

IL-23R = target: T1, IL-23R (Homo sapiens, UniProt Q5VWK5); assay: IL23R Reporter Assay; format: cell-based; settings: HEK293 cells containing IL-23R, IL-12Rβ1 and STAT-inducible firefly luciferase reporter; 10 ng/mL IL-23 (EC90); 5 h
T1 construct: HEK293 cells containing IL-23R, IL-12Rβ1 and a firefly luciferase reporter gene driven by a STAT-inducible promoter (Promega); host or cells: HEK293
T1 sequence (Q5VWK5 24-629): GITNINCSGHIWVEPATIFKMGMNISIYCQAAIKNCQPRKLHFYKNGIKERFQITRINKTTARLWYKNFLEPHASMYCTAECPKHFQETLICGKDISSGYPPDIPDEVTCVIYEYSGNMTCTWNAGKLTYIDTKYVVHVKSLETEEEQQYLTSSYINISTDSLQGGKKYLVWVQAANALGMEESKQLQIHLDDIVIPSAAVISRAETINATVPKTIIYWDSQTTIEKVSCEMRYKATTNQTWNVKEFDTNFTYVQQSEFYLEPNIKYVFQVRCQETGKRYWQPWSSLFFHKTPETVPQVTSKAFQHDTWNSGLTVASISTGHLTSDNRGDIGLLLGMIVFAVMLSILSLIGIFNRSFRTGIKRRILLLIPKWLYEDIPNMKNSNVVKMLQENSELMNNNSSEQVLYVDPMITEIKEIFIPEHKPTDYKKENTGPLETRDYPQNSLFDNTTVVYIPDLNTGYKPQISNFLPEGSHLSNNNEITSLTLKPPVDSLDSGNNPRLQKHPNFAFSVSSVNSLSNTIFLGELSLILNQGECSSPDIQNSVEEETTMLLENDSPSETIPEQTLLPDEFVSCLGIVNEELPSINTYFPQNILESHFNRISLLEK
How it was run: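 HEK293 cells carrying IL-23R, IL-12Rβ1 and a STAT-driven firefly luciferase reporter (4000 cells/well) received compound, then 10 ng/mL IL-23 solution (EC90), and were incubated for 5 h at 37° C. BioGlo luminescence was normalised to IL-23 alone (0%) and 30 μM control inhibitor (100%). IC50 came from a 4-parameter Hill fit.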

IC50 (IL-23R) [nM]	SMILES	IC50 [1] [nM]
< 50	CC(=O)NCCCC[C@@H]1NC(=O)[C@H](Cc2c[nH]c3c(C)cccc23)NC(=O)[C@H]([C@@H](C)O)NC(=O)[C@H](CCCCNC(=O)COCCOCCNC(=O)COCCOCCNC(=O)CC[C@H](NC(=O)CCCCCCCCCCCCCCCCC(=O)O)C(=O)O)NC(=O)[C@@H](NC(=O)[C@@H](CCCNC(=N)N)NC(C)=O)C(C)(C)SSC(C)(C)[C@@H](C(=O)N[C@@H](Cc2ccc(OCCCCC[N+](C)(C)C)cc2)C(=O)N[C@@H](Cc2ccc3ccccc3c2)C(=O)NC2(C(=O)N[C@@H](CCC(=O)O)C(=O)N[C@@H](CC(N)=O)C(=O)N[C@@H](Cc3cccnc3)C(=O)N(C)CC(N)=O)CCOCC2)NC1=O [compound 75, MeCO-r-Pen(3)-K(PEG2PEG2gEC18OH)-T-7MeW-K(Ac)-Pen(3)-TMAPF-2Nal-THP-E-N-3Pya-Sar-CONH2] (Ac-[dR][Pen]K([AEEA-AEEA-γGlu-C18 diacid])T[Trp(7-Me)]K(Ac)[Pen]Y(X1)[2Nal][Thp]EN[3Pal][Sar]-NH2; disulfide 2-7)	< 0.5
< 50	CC(=O)NCCCC[C@@H]1NC(=O)[C@H](Cc2c[nH]c3c(C)cccc23)NC(=O)[C@H]([C@@H](C)O)NC(=O)[C@H](CCCCCC(=O)CCC(=O)N[C@H](CC(=O)O)C[N+](C)(C)C)NC(=O)[C@@H](NC(=O)[C@@H](CCCNC(=N)N)NC(C)=O)C(C)(C)SSC(C)(C)[C@@H](C(=O)C[C@@H](Cc2ccc(OCCN)cc2)C(=O)N[C@@H](Cc2ccc3ccccc3c2)C(=O)NC2(C(=O)N[C@@H](CCCCNC(=O)COCCOCCNC(=O)COCCOCCNC(=O)CC[C@H](NC(=O)CCCCCCCCCCCCCCCCC(=O)O)C(=O)O)C(=O)N[C@@H](CC(N)=O)C(=O)N[C@@H](Cc3cccnc3)C(=O)N(C)CC(N)=O)CCOCC2)NC1=O [compound 37, MeCO-r-Pen(3)-K(d)-T-7MeW-K(Ac)-Pen(3)-AEF-2Nal-THP-K(PEG2PEG2gEC18OH)-N-3Pya-Sar-CONH2] (I: [2Nal][Thp]K([AEEA-AEEA-γGlu-C18 diacid])N[3Pal][Sar]-NH2 / II: Ac-[dR][Pen][X25]T[Trp(7-Me)]K(Ac); linker I:N-II:2-II:C via X19)	< 0.5
< 50	CC(=O)NCCCC[C@@H]1NC(=O)[C@H](Cc2c[nH]c3c(C)cccc23)NC(=O)[C@H]([C@@H](C)O)NC(=O)[C@H](CC(N)=O)NC(=O)[C@@H](NC(=O)[C@@H](CCCNC(=N)N)NC(C)=O)C(C)(C)SSC(C)(C)[C@@H](C(=O)N[C@@H](Cc2ccc(OCCNC(=O)CCC(=O)N[C@H](CC(=O)O)C[N+](C)(C)C)cc2)C(=O)N[C@@H](Cc2ccc3ccccc3c2)C(=O)NC2(C(=O)N[C@@H](CCCCNC(=O)COCCOCCNC(=O)COCCOCCNC(=O)CC[C@H](NC(=O)CCCCCCCCCCCCCCCCC(=O)O)C(=O)O)C(=O)N[C@@H](CC(N)=O)C(=O)N[C@@H](Cc3cccnc3)C(=O)N(C)CC(N)=O)CCOCC2)NC1=O [compound 22, MeCO-r-Pen(3)-N-T-7MeW-K(Ac)-Pen(3)-AEF(d)-2Nal-THP-K(PEG2PEG2gEC18OH)-N-3Pya-Sar-CONH2] (Ac-[dR][Pen]NT[Trp(7-Me)]K(Ac)[Pen][AEF]([Suc-X2])[2Nal][Thp]K([AEEA-AEEA-γGlu-C18 diacid])N[3Pal][Sar]-NH2; disulfide 2-7)	< 0.5

More lines, now with the values behind:

SMILES	IC50 (IL-23R) [nM]	IC50 [1] [nM]
CC(=O)N[C@H](CCCNC(=N)N)C(=O)N[C@@H]1C(=O)N[C@@H](CC(N)=O)C(=O)N[C@@H]([C@@H](C)O)C(=O)N[C@@H](Cc2c[nH]c3c(C)cccc23)C(=O)N[C@@H](CCC(N)=O)C(=O)N[C@H](C(=O)N[C@@H](Cc2ccc(OCCN)cc2)C(=O)N[C@@H](Cc2ccc3ccccc3c2)C(=O)NC2(C(=O)N[C@@H](CCC(=O)O)C(=O)N[C@@H](CC(N)=O)C(=O)N[C@@H](Cc3cccnc3)C(=O)N(C)CC(=O)N[C@@H](CCCCNC(=O)COCCOCCNC(=O)COCCOCCNC(=O)CC[C@H](NC(=O)CCCCCCCCCCCCCCCCC(=O)O)C(=O)O)C(=O)O)CCOCC2)C(C)(C)SSC1(C)C [compound 38, MeCO-r-Pen(3)-N-T-7MeW-Q-Pen(3)-AEF-2Nal-THP-E-N-3Pya-Sar-K(PEG2PEG2gEC18OH)-CONH2] (Ac-[dR][Pen]NT[Trp(7-Me)]Q[Pen][AEF][2Nal][Thp]EN[3Pal][Sar]K([AEEA-AEEA-γGlu-C18 diacid])-OH; disulfide 2-7)	< 50	< 0.5
CC(=O)NCCCC[C@H](NC(=O)C1(NC(=O)[C@H](Cc2ccc3ccccc3c2)NC(=O)[C@H](Cc2ccc(OCCN)cc2)NC(=O)[C@@H](NC(=O)[C@@H](N)CCCCNC(C)=O)C(C)(C)SSC(C)(C)[C@H](NC(C)=O)C(=O)N[C@@H](CC(N)=O)C(=O)N[C@H](C(=O)N[C@H](Cc2c[nH]c3c(C)cccc23)C(C)=O)[C@@H](C)O)CCOCC1)C(=O)N[C@@H](CC(N)=O)C(=O)N[C@@H](Cc1cccnc1)C(=O)N(C)CC(=O)N[C@@H](CCCCNC(=O)COCCOCCN(C)C(=O)COCCOCCN(C)C(=O)CC[C@@H](C(=O)O)N(C)C(=O)CCCCCCCCCCCCCCCCCc1nnn[nH]1)C(N)=O [compound 2, MeCO-Pen(3)-N-T-7MeW-K(Ac)-Pen(3)-AEF-2Nal-THP-K(Ac)-N-3Pya-Sar-K(PEG2NMePEG2NMegENMeC18Tetrazole)-CONH2]	50 to 500	< 0.5
CC(=O)NCCCC[C@@H]1NC(=O)[C@H](Cc2c[nH]c3c(C)cccc23)NC(=O)[C@H]([C@@H](C)O)NC(=O)[C@H](CC(N)=O)NC(=O)[C@@H](NC(C)=O)C(C)(C)SSC(C)(C)[C@@H](C(=O)N[C@@H](Cc2ccc(OCCNC(=O)COCCOCCNC(=O)COCCOCCNC(=O)CC[C@H](NC(=O)CCCCCCCCCCCCCCCCC(=O)O)C(=O)O)cc2)C(=O)N[C@@H](Cc2ccc3ccccc3c2)C(=O)NC2(C(=O)N[C@@H](CCCCNC(=O)CCC(=O)N[C@H](CC(=O)O)C[N+](C)(C)C)C(=O)N[C@@H](CC(N)=O)C(=O)N[C@@H](Cc3cccnc3)C(=O)N(C)CC(N)=O)CCOCC2)NC1=O [compound 8, MeCO-Pen(3)-N-T-7MeW-K(Ac)-Pen(3)-AEF(PEG2PEG2gEC18OH)-2Nal-THP-K(d)-N-3Pya-Sar-CONH2] (Ac-[Pen]NT[Trp(7-Me)]K(Ac)[Pen][AEF]([AEEA-AEEA-γGlu-C18 diacid])[2Nal][Thp]K([Suc-X2])N[3Pal][Sar]-NH2; disulfide 1-6)	< 50	< 0.5
CC(=O)NCCCC[C@@H]1NC(=O)[C@H](Cc2c[nH]c3c(C)cccc23)NC(=O)[C@H]([C@@H](C)O)NC(=O)[C@H](CC(N)=O)NC(=O)[C@@H](NC(=O)COCCOCCNC(=O)COCCOCCNC(=O)CC[C@H](NC(=O)CCCCCCCCCCCCCCCCC(=O)O)C(=O)O)C(C)(C)SSC(C)(C)[C@@H](C(=O)N[C@@H](Cc2ccc(OCCN)cc2)C(=O)N[C@@H](Cc2ccc3ccccc3c2)C(=O)NC2(C(=O)N[C@@H](CCC(=O)O)C(=O)N[C@@H](CC(N)=O)C(=O)N[C@@H](Cc3cccnc3)C(=O)N(C)CC(N)=O)CCOCC2)NC1=O [compound 61, HOC18gEPEG2PEG2CO-Pen(3)-N-T-7MeW-K(Ac)-Pen(3)-AEF-2Nal-THP-E-N-3Pya-Sar-CONH2]	< 50	< 0.5
CC(=O)NCCCCC1NC(=O)[C@H](Cc2c[nH]c3c(C)cccc23)NC(=O)[C@H]([C@@H](C)O)NC(=O)[C@H](CC(N)=O)NC(=O)[C@@H](NC(=O)[C@H](CCCCNC(=O)COCCOCCNC(=O)COCCOCCNC(=O)CC[C@H](NC(=O)CCCCCCCCCCCCCCCCC(=O)O)C(=O)O)NC(C)=O)C(C)(C)SSC(C)(C)[C@@H](C(=O)N[C@@H](Cc2ccc(OCCN)cc2)C(=O)N[C@@H](Cc2ccc3ccccc3c2)C(=O)NC2(C(=O)N[C@@H](CCCCNC(C)=O)C(=O)N[C@@H](CC(N)=O)C(=O)N[C@@H](Cc3cccnc3)C(=O)N(C)CC(N)=O)CCOCC2)NC1=O (stereo partly drawn) [compound 39, MeCO-K(PEG2PEG2gEC18OH)-Pen(3)-N-T-7MeW-K(Ac)-Pen(3)-AEF-2Nal-THP-K(Ac)-N-3Pya-Sar-CONH2] (Ac-K([AEEA-AEEA-γGlu-C18 diacid])[Pen]NT[Trp(7-Me)][ξK](Ac)[Pen][AEF][2Nal][Thp]K(Ac)N[3Pal][Sar]-NH2; disulfide 2-7)	< 50	< 0.5
